# Source: patent US10670605B2, “Cysteine reactive probes and uses thereof” (The Scripps Research Institute, priority 2015, dated 2020)
# How the values were obtained:
# Experiment in all cases: Competitive isoTOP-ABPP, cell lysates
# Type in all cases: binding
# [1] = target: CDK5 C157 (Q00535) (Homo sapiens, UniProt Q00535)
# [2] = target: T1, USP48 C39 (Q86UV5) (Homo sapiens, UniProt Q86UV5)
# T1 sequence (Q86UV5 1-1035): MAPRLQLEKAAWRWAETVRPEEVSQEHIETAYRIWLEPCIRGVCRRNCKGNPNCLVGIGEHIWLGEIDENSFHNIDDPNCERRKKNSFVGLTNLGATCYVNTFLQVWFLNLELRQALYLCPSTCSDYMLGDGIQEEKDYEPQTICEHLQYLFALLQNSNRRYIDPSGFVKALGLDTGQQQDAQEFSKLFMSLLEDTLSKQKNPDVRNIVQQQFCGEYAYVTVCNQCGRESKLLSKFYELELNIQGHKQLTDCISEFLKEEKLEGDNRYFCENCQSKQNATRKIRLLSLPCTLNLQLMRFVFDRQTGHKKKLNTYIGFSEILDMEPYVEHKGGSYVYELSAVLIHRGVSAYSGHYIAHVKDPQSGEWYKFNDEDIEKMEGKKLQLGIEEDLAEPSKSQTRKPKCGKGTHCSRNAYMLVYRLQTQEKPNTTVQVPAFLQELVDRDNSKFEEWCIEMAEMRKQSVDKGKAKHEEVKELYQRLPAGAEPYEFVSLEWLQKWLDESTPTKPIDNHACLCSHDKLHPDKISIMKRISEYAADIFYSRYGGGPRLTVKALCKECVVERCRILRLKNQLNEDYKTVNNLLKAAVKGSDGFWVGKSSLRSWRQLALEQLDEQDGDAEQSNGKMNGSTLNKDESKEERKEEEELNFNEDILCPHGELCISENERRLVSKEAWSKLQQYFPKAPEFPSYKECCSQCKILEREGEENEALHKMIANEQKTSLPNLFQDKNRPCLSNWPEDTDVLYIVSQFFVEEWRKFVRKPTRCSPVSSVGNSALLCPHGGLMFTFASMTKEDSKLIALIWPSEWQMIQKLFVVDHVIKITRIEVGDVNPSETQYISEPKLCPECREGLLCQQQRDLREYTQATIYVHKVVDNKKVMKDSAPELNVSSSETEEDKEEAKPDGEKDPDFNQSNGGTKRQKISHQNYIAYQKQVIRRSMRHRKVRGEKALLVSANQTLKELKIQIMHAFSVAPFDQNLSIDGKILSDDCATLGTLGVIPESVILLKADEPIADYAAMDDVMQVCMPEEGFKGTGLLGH
# [3] = target: T2, CYR61 C39 (O00622) (Homo sapiens, UniProt O00622)
# T2 sequence (O00622 25-381): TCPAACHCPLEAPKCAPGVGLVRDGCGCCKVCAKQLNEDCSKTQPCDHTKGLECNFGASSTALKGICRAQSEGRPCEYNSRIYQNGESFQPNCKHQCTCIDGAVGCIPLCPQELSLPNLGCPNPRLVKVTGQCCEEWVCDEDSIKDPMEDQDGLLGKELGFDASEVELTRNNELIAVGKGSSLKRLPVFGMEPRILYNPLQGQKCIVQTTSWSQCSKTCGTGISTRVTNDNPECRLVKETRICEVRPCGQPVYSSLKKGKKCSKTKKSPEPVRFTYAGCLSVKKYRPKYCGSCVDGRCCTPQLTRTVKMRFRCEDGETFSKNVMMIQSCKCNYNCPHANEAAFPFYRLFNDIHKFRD
# [4] = target: RRAGC C377 (Q9HB90) (Homo sapiens, UniProt Q9HB90)
# Chain of RRAGC C377 (Q9HB90) (Q9HB90 2-399 limits assumed): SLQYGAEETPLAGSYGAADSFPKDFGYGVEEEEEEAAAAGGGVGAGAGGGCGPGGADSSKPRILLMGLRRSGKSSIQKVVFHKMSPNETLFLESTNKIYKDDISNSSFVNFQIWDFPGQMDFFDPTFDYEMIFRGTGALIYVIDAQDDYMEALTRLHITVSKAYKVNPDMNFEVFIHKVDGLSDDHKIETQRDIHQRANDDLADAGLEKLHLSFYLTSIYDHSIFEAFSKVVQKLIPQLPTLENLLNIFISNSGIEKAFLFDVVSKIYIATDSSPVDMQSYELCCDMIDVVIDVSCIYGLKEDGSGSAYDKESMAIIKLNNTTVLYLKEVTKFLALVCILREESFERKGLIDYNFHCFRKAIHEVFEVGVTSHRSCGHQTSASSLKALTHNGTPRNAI
# Chain of RRAGC C377 (Q9HB90) (Q7L523 whole entry partner): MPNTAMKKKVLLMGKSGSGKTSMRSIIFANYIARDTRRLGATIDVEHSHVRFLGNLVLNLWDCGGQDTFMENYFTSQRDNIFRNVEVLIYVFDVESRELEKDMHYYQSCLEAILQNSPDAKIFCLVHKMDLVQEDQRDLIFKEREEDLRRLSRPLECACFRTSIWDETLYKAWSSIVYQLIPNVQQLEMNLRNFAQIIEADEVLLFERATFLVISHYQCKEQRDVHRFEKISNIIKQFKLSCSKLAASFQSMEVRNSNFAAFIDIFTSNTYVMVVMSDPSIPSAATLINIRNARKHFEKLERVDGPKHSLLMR
# [5] = target: RRAGC C358 (Q9HB90) (Homo sapiens, UniProt Q9HB90)
# Chain of RRAGC C358 (Q9HB90) (Q9HB90 2-399 limits assumed): as the sequence (Q9HB90 2-399 limits assumed) above
# Chain of RRAGC C358 (Q9HB90) (Q7L523 whole entry partner): as the sequence (Q7L523 whole entry partner) above
# [6] = target: USP16 C205 (Q9Y5T5) (Homo sapiens, UniProt Q9Y5T5)
# Chain of USP16 C205 (Q9Y5T5) (Q9Y5T5 whole entry): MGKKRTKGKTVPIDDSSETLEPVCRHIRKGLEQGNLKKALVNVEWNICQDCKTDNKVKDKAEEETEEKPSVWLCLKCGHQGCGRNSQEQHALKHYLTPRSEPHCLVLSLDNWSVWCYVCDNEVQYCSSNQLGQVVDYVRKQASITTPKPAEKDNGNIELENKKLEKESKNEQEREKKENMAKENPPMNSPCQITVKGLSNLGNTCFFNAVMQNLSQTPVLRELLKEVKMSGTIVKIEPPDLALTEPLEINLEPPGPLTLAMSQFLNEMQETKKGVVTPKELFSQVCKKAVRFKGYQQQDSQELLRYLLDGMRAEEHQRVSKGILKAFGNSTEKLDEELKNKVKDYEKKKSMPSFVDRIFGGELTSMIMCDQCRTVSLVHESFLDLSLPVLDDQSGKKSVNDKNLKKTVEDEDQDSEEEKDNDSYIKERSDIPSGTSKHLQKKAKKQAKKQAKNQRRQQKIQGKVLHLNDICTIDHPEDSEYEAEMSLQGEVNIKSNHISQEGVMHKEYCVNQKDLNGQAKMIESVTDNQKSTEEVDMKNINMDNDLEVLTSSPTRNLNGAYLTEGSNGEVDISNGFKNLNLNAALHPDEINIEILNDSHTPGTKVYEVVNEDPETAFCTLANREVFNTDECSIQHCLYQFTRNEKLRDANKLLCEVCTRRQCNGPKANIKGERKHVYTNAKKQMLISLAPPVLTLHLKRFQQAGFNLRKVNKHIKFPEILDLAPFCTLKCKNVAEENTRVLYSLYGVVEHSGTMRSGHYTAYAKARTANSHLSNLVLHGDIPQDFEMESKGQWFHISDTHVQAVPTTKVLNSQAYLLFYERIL
# Chain of CDK5 C157 (Q00535) (Q00535 whole entry): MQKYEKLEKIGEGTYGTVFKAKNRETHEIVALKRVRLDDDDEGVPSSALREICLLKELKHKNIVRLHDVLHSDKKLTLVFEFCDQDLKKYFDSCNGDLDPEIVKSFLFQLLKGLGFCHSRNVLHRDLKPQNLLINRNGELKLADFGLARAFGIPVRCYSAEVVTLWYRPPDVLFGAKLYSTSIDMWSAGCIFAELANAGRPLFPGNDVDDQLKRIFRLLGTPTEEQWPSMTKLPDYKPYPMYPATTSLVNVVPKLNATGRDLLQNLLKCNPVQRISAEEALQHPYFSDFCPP
Compound,"isoTOP-ABPP ratio (reactivity profile), Q00535_C157 ([1]; 500 μm in-vitro ramos)","isoTOP-ABPP ratio (reactivity profile), Q86UV5_C39 ([2]; 500 μm in-vitro ramos_231)","isoTOP-ABPP ratio (reactivity profile), O00622_C39 ([3]; 500 μm in-vitro ramos_231)","isoTOP-ABPP ratio (reactivity profile), Q9HB90_C377 ([4]; 500 μm in-vitro ramos_231)","isoTOP-ABPP ratio (reactivity profile), Q9HB90_C358 ([5]; 500 μm in-vitro ramos_231)","isoTOP-ABPP ratio (reactivity profile), Q9Y5T5_C205 ([6]; 500 μm in-vitro ramos)","isoTOP-ABPP ratio (reactivity profile), Q9Y5T5_C205 ([6]; 500 μm in-vitro ramos_231)","isoTOP-ABPP reactivity ratio, Q00535_C157 ([1]; 500 μm, in-vitro_ramos_231)","isoTOP-ABPP reactivity ratio, Q86UV5_C39 ([2]; 500 μm, in-vitro_ramos_231)","isoTOP-ABPP reactivity ratio, O00622_C39 ([3]; 500 μm, in-vitro_ramos_231)","isoTOP-ABPP reactivity ratio, Q9HB90_C377 ([4]; 500 μm, in-vitro_ramos_231)","isoTOP-ABPP reactivity ratio, Q9HB90_C358 ([5]; 500 μm, in-vitro_ramos_231)","isoTOP-ABPP reactivity ratio, Q9Y5T5_C205 ([6]; 500 μm, in-vitro_ramos)"
CC(C)CCOCCNC(=O)CCl [compound 27],1.0,0.8,1.0,1.0,0.3,0.9,1.6,,,,,,
C=CC(=O)Nc1cc(F)c(N2CCN(C(=O)OC(C)(C)C)CC2)c(F)c1 [compound 38],,,,,,,,0.9,3.7,0.8,1.0,1.1,1.9
